Assay results reported in US9636418B2 (priority 2013, dated 2017).
“And” between values parts separate entries of the source, which are not always exact repeats. Equal values may be shown once. Read-outs that look alike come from different tables or passages of the source.

Legend:
Experiment in all cases: cell-based
hNav1.4 = hNav1.4 (Homo sapiens, UniProt P35499); conditions: for IC50: PatchXpress, read-out: PX hNav1.4 Tonic IC50
hNav1.5 = hNav1.5 (Homo sapiens, UniProt Q14524); conditions: for IC50: PatchXpress, * = at high concentrations compound would wash off slowly or not at all, read-out: PX hNav1.5 Tonic IC50
hNav1.5, sequence (Q14524 whole entry): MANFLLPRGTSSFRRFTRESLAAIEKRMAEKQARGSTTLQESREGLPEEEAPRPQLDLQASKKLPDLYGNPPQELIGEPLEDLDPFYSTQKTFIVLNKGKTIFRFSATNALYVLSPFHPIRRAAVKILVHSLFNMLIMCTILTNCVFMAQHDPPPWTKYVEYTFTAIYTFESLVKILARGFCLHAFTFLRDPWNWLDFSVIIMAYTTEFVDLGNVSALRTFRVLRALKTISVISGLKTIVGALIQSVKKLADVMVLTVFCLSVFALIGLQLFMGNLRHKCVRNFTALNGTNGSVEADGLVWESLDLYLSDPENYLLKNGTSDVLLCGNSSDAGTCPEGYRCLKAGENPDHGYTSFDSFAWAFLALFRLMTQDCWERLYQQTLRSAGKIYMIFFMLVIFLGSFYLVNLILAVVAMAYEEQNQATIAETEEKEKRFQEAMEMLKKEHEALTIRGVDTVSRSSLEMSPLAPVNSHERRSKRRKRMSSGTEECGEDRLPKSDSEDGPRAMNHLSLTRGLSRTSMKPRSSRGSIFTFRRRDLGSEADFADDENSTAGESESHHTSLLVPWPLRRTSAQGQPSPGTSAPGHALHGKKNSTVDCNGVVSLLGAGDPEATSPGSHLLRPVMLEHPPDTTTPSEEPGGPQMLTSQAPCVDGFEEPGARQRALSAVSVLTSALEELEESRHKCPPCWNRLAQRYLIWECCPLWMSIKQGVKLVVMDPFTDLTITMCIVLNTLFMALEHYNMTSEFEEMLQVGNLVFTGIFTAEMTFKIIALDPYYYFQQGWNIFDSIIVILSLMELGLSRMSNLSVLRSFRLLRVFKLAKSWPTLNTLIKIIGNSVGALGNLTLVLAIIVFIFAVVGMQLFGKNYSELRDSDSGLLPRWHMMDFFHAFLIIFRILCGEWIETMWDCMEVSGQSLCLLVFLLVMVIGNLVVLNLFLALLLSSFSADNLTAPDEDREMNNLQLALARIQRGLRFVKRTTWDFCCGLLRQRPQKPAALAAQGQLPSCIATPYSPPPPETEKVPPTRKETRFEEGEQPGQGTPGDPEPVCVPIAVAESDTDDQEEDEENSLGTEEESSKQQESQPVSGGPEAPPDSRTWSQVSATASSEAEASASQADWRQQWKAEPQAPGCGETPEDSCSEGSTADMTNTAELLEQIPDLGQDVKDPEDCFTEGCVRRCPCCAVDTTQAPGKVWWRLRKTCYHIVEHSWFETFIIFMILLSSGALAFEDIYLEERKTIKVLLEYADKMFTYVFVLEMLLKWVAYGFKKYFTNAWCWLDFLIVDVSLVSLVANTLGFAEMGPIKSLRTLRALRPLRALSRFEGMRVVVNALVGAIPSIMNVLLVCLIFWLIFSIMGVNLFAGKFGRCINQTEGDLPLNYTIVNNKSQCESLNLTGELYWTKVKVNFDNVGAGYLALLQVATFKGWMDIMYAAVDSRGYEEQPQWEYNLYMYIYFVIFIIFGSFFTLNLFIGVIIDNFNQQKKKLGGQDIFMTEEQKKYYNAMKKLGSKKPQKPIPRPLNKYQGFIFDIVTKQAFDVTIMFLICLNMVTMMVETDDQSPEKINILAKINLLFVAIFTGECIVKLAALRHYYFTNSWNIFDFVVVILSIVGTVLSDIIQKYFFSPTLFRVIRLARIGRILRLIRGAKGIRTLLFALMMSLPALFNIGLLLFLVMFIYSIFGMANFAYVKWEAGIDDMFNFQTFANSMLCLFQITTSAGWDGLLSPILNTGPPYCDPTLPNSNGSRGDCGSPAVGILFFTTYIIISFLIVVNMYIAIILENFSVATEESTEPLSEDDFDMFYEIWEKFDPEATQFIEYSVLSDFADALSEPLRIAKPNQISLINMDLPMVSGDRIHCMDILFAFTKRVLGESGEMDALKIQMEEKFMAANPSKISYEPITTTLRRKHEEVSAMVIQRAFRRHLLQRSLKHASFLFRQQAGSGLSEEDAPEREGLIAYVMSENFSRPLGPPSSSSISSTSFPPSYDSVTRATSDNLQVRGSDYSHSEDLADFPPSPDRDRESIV

hNav1.7 = hNav1.7 (Homo sapiens, UniProt Q15858); assay type: cell-based; conditions: PatchXpress, tonic block; read-out: PX hNav1.7 Tonic IC50
[1] = * = at high concentrations compound would wash off slowly or not at all

hNav1.4, sequence (P35499 whole entry): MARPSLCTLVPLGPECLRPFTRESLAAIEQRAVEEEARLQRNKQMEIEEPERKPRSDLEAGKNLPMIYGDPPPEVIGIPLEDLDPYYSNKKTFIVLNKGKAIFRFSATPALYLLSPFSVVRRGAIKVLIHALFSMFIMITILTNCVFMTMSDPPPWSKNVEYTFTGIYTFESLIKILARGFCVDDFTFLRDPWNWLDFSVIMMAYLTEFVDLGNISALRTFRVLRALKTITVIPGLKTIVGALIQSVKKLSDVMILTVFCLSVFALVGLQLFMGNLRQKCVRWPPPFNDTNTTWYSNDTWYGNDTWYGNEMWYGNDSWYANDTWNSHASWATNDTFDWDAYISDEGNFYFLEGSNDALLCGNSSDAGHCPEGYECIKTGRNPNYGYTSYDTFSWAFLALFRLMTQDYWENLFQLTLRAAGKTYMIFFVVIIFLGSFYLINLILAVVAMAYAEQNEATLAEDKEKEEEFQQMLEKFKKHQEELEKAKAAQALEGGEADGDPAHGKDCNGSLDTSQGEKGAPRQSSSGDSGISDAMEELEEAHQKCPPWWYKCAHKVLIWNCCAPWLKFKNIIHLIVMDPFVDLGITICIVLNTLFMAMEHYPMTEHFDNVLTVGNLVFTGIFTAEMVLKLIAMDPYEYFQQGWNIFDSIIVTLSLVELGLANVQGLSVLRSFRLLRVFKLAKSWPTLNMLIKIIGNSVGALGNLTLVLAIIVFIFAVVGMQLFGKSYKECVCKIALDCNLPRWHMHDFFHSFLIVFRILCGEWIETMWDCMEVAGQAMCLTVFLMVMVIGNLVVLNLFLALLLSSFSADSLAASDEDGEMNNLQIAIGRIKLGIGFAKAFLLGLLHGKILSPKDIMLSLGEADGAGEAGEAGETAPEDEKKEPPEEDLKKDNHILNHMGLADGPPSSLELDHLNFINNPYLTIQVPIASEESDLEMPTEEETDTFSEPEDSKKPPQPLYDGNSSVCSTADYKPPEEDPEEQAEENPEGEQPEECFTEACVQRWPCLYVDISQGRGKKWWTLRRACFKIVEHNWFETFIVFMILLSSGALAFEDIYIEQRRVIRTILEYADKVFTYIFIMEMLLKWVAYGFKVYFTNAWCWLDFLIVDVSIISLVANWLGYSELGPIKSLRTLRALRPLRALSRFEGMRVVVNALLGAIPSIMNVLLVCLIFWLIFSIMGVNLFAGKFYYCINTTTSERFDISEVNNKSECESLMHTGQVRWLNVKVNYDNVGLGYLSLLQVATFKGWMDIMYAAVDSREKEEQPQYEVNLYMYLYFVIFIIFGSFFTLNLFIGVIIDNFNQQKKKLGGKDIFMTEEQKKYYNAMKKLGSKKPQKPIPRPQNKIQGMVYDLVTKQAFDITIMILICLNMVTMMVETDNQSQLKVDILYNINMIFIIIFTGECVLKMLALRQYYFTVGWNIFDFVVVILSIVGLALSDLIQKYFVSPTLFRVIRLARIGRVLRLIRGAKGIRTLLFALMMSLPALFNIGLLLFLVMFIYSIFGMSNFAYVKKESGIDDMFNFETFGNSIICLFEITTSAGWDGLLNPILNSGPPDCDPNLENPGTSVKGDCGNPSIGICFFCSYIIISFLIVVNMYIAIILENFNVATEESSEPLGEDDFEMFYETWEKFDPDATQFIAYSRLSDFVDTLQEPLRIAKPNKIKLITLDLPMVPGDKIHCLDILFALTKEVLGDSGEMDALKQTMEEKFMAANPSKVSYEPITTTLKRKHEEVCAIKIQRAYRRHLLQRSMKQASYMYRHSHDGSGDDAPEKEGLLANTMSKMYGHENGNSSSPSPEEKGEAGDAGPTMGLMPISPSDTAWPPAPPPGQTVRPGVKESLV

In the case of `CCCC[C@@H]1NC(=O)[C@H](Cc2c[nH]c3ccccc23)NC(=O)[C@H](CCCCN)NC(=O)[C@H](CCC(N)=O)NC(=O)[C@@H](NC(=O)[C@H](Cc2ccc(O)cc2)NC(=O)[C@H](N)CC(C)C)CSSC[C@@H]2NC(=O)[C@@H]3CSSC[C@@H](C(=O)N[C@@H](CCCNC(=N)N)C(=O)N[C@@H](CCCCN)C(=O)N[C@H](C(=O)N[C@H](C(N)=O)[C@@H](C)CC)[C@@H](C)CC)NC(=O)[C@H](Cc4c[nH]c5ccccc45)NC(=O)[C@H](CC(C)C)NC(=O)[C@H](CCCCN)NC(=O)[C@H](CSSC[C@H](NC(=O)[C@H]([C@@H](C)O)NC(=O)[C@H](Cc4c[nH]c5ccccc45)NC1=O)C(=O)N[C@@H](CC(=O)O)C(=O)N[C@@H](CO)C(=O)N[C@@H](CCCCN)C(=O)N[C@@H](CCCNC(=N)N)C(=O)N[C@@H](C)C(=O)N3)NC(=O)[C@H](CCCNC(=N)N)NC(=O)[C@H](CC(C)C)NC(=O)CNC(=O)[C@H](CCC(=O)O)NC2=O` [compound 373], the IC50 (hNav1.4; [1]) is reported as 28.7 nM, the Nav1.4/Nav1.7 (hNav1.4; ratio of PX IC50 values) is reported as 190 and the IC50 (hNav1.5) is reported as 410 nM.

With `CCCC[C@@H]1NC(=O)[C@H](Cc2c[nH]c3ccccc23)NC(=O)[C@H](CCCCN)NC(=O)[C@H](CCC(N)=O)NC(=O)[C@@H](NC(=O)[C@H](Cc2ccc(O)cc2)NC(=O)[C@@H](N)CCC)CSSC[C@@H]2NC(=O)[C@@H]3CSSC[C@@H](C(=O)N[C@@H](CCCNC(=N)N)C(=O)N[C@@H](CCCCN)C(=O)N[C@H](C(=O)N[C@H](C(N)=O)[C@@H](C)CC)[C@@H](C)CC)NC(=O)[C@H](Cc4c[nH]c5ccccc45)NC(=O)[C@H](CC(C)C)NC(=O)[C@H](CCCCN)NC(=O)[C@H](CSSC[C@H](NC(=O)[C@H]([C@@H](C)O)NC(=O)[C@H](Cc4c[nH]c5ccccc45)NC1=O)C(=O)N[C@@H](CC(=O)O)C(=O)N[C@@H](CO)C(=O)N[C@@H](CCCCN)C(=O)N[C@@H](CCCNC(=N)N)C(=O)N[C@@H](C)C(=O)N3)NC(=O)[C@H](CCCNC(=N)N)NC(=O)[C@H](CC(C)C)NC(=O)CNC(=O)[C@H](CCC(=O)O)NC2=O` [compound 369] the IC50 (hNav1.4; [1]) was 11.6 nM and the IC50 (hNav1.5) was 490 nM.

`CCCC[C@@H]1NC(=O)[C@H](Cc2c[nH]c3ccccc23)NC(=O)[C@H](CCCCN)NC(=O)[C@H](CCC(N)=O)NC(=O)[C@@H](NC(=O)[C@H](Cc2ccc(O)cc2)NC(=O)[C@@H](N)CC(C)C)CSSC[C@@H]2NC(=O)[C@@H]3CSSC[C@@H](C(=O)N[C@@H](CCCNC(=N)N)C(=O)N[C@@H](CCCCN)C(=O)N[C@H](C(=O)N[C@H](C(N)=O)[C@@H](C)CC)[C@@H](C)CC)NC(=O)[C@H](Cc4c[nH]c5ccccc45)NC(=O)[C@H](CC(C)C)NC(=O)[C@H](CCCCN)NC(=O)[C@H](CSSC[C@H](NC(=O)[C@H]([C@@H](C)O)NC(=O)[C@H](Cc4c[nH]c5ccccc45)NC1=O)C(=O)N[C@@H](CC(=O)O)C(=O)N[C@@H](CO)C(=O)N[C@@H](CCCCN)C(=O)N[C@@H](CCCNC(=N)N)C(=O)N[C@@H](C)C(=O)N3)NC(=O)[C@H](CCCNC(=N)N)NC(=O)[C@H](CC(C)C)NC(=O)CNC(=O)[C@H](CCC(=O)O)NC2=O` [compound 361] showed a Nav1.4/Nav1.7 (hNav1.4; ratio of PX IC50 values) of 0 and a Nav1.5/Nav1.7 (hNav1.5; ratio of PX IC50 values) of 0.

In the case of `C#CC[C@H](N)C(=O)NCCOCCOCCOCCOCCC(=O)NCCCC[C@@H]1NC(=O)[C@H](CCCNC(=N)N)NC(=O)[C@H](CCCCN)NC(=O)[C@H](CO)NC(=O)[C@H](CC(=O)O)NC(=O)[C@@H]2CSSC[C@@H]3NC(=O)[C@H](CCCNC(=N)N)NC(=O)[C@H](CC(C)C)NC(=O)CNC(=O)[C@H](CCC(=O)O)NC(=O)[C@H](CSSC[C@H](NC(=O)[C@H](Cc4ccc(O)cc4)NC(=O)[C@@H](N)CC#N)C(=O)N[C@@H](CCC(N)=O)C(=O)N[C@@H](CCCCN)C(=O)N[C@@H](Cc4c[nH]c5ccccc45)C(=O)N[C@@H](CCCC)C(=O)N[C@@H](Cc4c[nH]c5ccccc45)C(=O)N[C@@H]([C@@H](C)O)C(=O)N2)NC(=O)[C@H](CSSC[C@@H](C(=O)N[C@@H](CCCNC(=N)N)C(=O)N[C@@H](CCCCN)C(=O)N[C@H](C(=O)N[C@H](C(N)=O)[C@@H](C)CC)[C@@H](C)CC)NC(=O)[C@H](Cc2c[nH]c4ccccc24)NC(=O)[C@H](CC(C)C)NC(=O)[C@H](CCCCN)NC3=O)NC1=O` [compound 380], the Nav1.4/Nav1.7 (hNav1.4; ratio of PX tonic IC50 values) is reported as 0 and the Nav1.5/Nav1.7 (hNav1.5; ratio of PX tonic IC50 values) is reported as 0.

`CCCC[C@@H]1NC(=O)[C@H](Cc2c[nH]c3ccccc23)NC(=O)[C@H](CCCCN)NC(=O)[C@H](CCC(N)=O)NC(=O)[C@@H](NC(=O)[C@H](Cc2ccc(O)cc2)NC(=O)[C@@H](N)Cc2cn(CCOCCOCCOCCOCCOCCOCCOCCOCCOCCOCCOCCOCCOCCOCCOCCOCCOCCOCCOCCOCCOCCOCCOCCNC(=O)c3cc(CNC(=O)CSCc4ccccc4)cc(C(=O)NCCOCCOCCOCCOCCOCCOCCOCCOCCOCCOCCOCCOCCOCCOCCOCCOCCOCCOCCOCCOCCOCCOCCOCCn4cc(C[C@H](N)C(=O)N[C@@H](Cc5ccc(O)cc5)C(=O)N[C@H]5CSSC[C@@H]6NC(=O)[C@@H]7CSSC[C@@H](C(=O)N[C@@H](CCCNC(=N)N)C(=O)N[C@@H](CCCCN)C(=O)N[C@H](C(=O)N[C@H](C(N)=O)[C@@H](C)CC)[C@@H](C)CC)NC(=O)[C@H](Cc8c[nH]c9ccccc89)NC(=O)[C@H](CC(C)C)NC(=O)[C@H](CCCCN)NC(=O)[C@H](CSSC[C@H](NC(=O)[C@H]([C@@H](C)O)NC(=O)[C@H](Cc8c[nH]c9ccccc89)NC(=O)[C@H](CCCC)NC(=O)[C@H](Cc8c[nH]c9ccccc89)NC(=O)[C@H](CCCCN)NC(=O)[C@H](CCC(N)=O)NC5=O)C(=O)N[C@@H](CC(=O)O)C(=O)N[C@@H](CO)C(=O)N[C@@H](CCCCN)C(=O)N[C@@H](CCCNC(=N)N)C(=O)N[C@@H](C)C(=O)N7)NC(=O)[C@H](CCCNC(=N)N)NC(=O)[C@H](CC(C)C)NC(=O)CNC(=O)[C@H](CCC(=O)O)NC6=O)nn4)c3)nn2)CSSC[C@@H]2NC(=O)[C@@H]3CSSC[C@@H](C(=O)N[C@@H](CCCNC(=N)N)C(=O)N[C@@H](CCCCN)C(=O)N[C@H](C(=O)N[C@H](C(N)=O)[C@@H](C)CC)[C@@H](C)CC)NC(=O)[C@H](Cc4c[nH]c5ccccc45)NC(=O)[C@H](CC(C)C)NC(=O)[C@H](CCCCN)NC(=O)[C@H](CSSC[C@H](NC(=O)[C@H]([C@@H](C)O)NC(=O)[C@H](Cc4c[nH]c5ccccc45)NC1=O)C(=O)N[C@@H](CC(=O)O)C(=O)N[C@@H](CO)C(=O)N[C@@H](CCCCN)C(=O)N[C@@H](CCCNC(=N)N)C(=O)N[C@@H](C)C(=O)N3)NC(=O)[C@H](CCCNC(=N)N)NC(=O)[C@H](CC(C)C)NC(=O)CNC(=O)[C@H](CCC(=O)O)NC2=O` [Homodimeric Conjugate No. 2, Bis-{Atz(PEG23*)-[Nle6]JzTx-V(1-29)}-5-((2-(benzylthio)acetamido)methyl)isophthalamide] was tested, and the Nav1.4/Nav1.7 (hNav1.4; ratio of PX IC50 values) was 5 and 3 and the IC50 (hNav1.5) was 720 nM and 1180 nM.

`C#CC[C@H](N)C(=O)NCCCC[C@@H]1NC(=O)[C@H](CCCNC(=N)N)NC(=O)[C@H](CCCCN)NC(=O)[C@H](CO)NC(=O)[C@H](CC(=O)O)NC(=O)[C@@H]2CSSC[C@@H]3NC(=O)[C@H](CCCNC(=N)N)NC(=O)[C@H](CC(C)C)NC(=O)CNC(=O)[C@H](CCC(=O)O)NC(=O)[C@H](CSSC[C@H](NC(=O)[C@H](Cc4ccc(O)cc4)NC(=O)[C@@H](N)CCC)C(=O)N[C@@H](CCC(N)=O)C(=O)N[C@@H](CCCCN)C(=O)N[C@@H](Cc4c[nH]c5ccccc45)C(=O)N[C@@H](CC(C)C)C(=O)N[C@@H](Cc4c[nH]c5ccccc45)C(=O)N[C@@H]([C@@H](C)O)C(=O)N2)NC(=O)[C@H](CSSC[C@@H](C(=O)N[C@@H](CCCNC(=N)N)C(=O)N[C@@H](CCCCN)C(=O)N[C@H](C(=O)N[C@H](C(N)=O)[C@@H](C)CC)[C@@H](C)CC)NC(=O)[C@H](Cc2c[nH]c4ccccc24)NC(=O)[C@H](CC(C)C)NC(=O)[C@H](CCCCN)NC3=O)NC1=O` [compound 438] was tested, and the IC50 (hNav1.7) was 2.38 nM and 1.57 nM, the IC50 (hNav1.4; tonic block) was 16.1 nM and the Nav1.4/Nav1.7 (hNav1.4; ratio of PX tonic IC50 values) was 7.
